Experimental data published in ChEMBL document CHEMBL5223135, “Guanidine-based β amyloid precursor protein cleavage enzyme 1 (BACE-1) inhibitors for the Alzheimer's disease (AD): A review” (Bioorg Med Chem, 2022).

Experiments:
[1] = Permeability in human Caco-2 cells; format: ADME, cell-based; conditions: read-out: permeability
[2] = n-Octanol/water partition coefficient, logP of the compound; format: physicochemical
[3] = Aqueous solubility, logS of the compound; format: physicochemical; conditions: buffer

SMILES	Papp [1] [×10⁻⁶ cm/s]	logP [2]	logS0 [3]
Cn1c(N/N=C/c2cccc(Cl)c2Cl)nc2ccccc2c1=O	0.57	–	–
C(=N\Nc1nnc(-c2cccs2)c(-c2cccs2)n1)/c1cc2ccccc2[nH]1	0.53	–	–
N=C(Nc1cnc(F)c(F)c1)Nc1cnc(F)c(F)c1	–	1.76	-2.73
O=[N+]([O-])c1ccc(-n2cc(COc3ccc(/C=N/Nc4nnc(-c5ccccc5)c(-c5ccccc5)n4)cc3)nn2)cc1	0.53	–	–
